Data: US20150336889A1, “INDOLE DERIVATIVES, PHARMACEUTICAL COMPOSITIONS CONTAINING SUCH INDOLES AND THEIR USE AS DNA METHYLATION MODULATORS” (IKERCHEM, S.L., priority 2012, published 2015)

How the values were obtained:
Human DNMT1 = target: T1, Human DNMT1 (Homo sapiens, UniProt P26358); assay: DNMT1 enzymatic activity inhibition, radioisotope-based 3H-SAM filter binding assay; assay type: biochemical; conditions: 1 μM SAM, 25 nM DNMT1, 0.005 mg/ml Poly(dI-dC), 30° C. 1 hour, 10-dose
T1 construct: a-a 2-1632, with N-terminal GST tag; GST (N)
T1 sequence (P26358 2-1632 isoform P26358-2): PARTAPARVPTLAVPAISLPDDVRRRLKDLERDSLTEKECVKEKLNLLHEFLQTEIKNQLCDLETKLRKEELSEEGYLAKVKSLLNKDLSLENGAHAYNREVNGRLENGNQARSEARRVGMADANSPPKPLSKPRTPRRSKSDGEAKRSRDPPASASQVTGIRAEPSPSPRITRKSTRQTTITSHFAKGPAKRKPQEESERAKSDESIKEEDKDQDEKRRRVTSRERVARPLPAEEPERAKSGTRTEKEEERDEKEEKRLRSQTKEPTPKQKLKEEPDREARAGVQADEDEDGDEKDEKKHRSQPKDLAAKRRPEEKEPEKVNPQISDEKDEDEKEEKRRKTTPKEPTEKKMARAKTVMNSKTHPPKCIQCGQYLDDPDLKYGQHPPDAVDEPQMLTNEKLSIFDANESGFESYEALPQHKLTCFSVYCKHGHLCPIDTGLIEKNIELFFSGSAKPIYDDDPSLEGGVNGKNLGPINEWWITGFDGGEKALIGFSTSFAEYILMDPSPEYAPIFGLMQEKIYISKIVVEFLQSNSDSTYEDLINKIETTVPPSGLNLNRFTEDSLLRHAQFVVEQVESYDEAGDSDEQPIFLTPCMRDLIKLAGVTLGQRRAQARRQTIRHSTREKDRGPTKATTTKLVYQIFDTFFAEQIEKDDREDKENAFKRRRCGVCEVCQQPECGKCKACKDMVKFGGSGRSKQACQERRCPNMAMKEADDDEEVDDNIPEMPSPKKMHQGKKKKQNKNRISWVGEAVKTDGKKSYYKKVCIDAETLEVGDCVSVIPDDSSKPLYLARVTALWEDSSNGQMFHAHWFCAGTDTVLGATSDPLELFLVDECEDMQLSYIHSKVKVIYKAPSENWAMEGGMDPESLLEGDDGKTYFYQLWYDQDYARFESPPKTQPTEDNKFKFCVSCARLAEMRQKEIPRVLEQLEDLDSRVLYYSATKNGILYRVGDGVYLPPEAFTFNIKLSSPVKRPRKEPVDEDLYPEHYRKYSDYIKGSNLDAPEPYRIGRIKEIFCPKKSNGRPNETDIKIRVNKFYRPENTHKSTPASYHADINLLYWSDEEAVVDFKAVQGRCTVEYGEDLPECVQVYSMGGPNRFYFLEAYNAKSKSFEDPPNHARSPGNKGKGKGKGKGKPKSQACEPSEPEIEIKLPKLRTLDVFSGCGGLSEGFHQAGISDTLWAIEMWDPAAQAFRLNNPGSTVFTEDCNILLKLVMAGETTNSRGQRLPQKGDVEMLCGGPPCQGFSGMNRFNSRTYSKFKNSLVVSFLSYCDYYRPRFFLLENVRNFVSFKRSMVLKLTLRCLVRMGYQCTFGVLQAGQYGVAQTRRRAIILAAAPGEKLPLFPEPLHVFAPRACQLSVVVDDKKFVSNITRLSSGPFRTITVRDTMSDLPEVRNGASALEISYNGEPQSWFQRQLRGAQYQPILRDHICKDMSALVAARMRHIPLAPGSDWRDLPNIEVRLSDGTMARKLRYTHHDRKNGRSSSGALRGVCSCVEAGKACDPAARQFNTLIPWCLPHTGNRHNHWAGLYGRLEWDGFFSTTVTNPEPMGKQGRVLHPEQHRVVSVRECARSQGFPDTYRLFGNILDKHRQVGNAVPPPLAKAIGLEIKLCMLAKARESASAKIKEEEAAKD
Method: The inhibition of the enzymatic activity of DNMT1 was tested using low volume radioisotope-based assay which uses tritium-labeled AdoMet (^3H-SAM) as a methyl donor. Inhibitors diluted in DMSO were added by using acoustic technology (Echo550, Labcyte Inc. Sunnyvale, Calif.) into enzyme/substrate mixture in nano-liter range. The reaction was initiated by the addition of ^3H-SAM, and incubated at 30° C. for 1 hour. Total final methylations on the substrate poly(dI-dC) were detected by a filter binding approach. Data analysis was performed using GraphPad Prism software (La Jolla, Calif.) for IC50 curve fits.

MCF-7 = assay: Cancer cell growth inhibition, MCF-7; assay type: cell-based; conditions: Homo sapiens, MCF7; Breast, MCF-7, cell viability, 72 h
Method: (§1) Cell culture-based assays were used to evaluate the ability of compounds of the invention to inhibit cancer cell growth inhibition.
(§2) Cells were obtained from the American Type Culture Collection (ATCC) and European Collection of Cell Cultures (ECACC).
(§3) Cells were thawed in their appropriate media plus supplements (see table below). Cells were passaged at confluence by washing once in HBSS cation-free followed by a 3 minutes incubation with trypsin ([0.5 μg/ml]/EDTA [0.2 μg/ml]) (Gibco-BRL, 15400054) solution in HBSS at 37° C. (except non-adherent cell lines), and transferred to their appropriate media plus supplements. Prior to seeding at defined cell concentration, cells were recovered in medium, centrifuged and taken up in medium, and counted.
(§4) Cells were plated at 3000/5000/10000 cells/well in 100 μl media in tissue culture 96 well plates (Cultek). After 24 h, media was supplemented by 100 μl/well of diluted IPDNs at 100 μM.
(§5) The Hexosaminidase assay was used for the adherent cell lines, whereas the AlamarBlue® assay was used for the non-adherent cell lines.
(§6) Dose-response curves were generated by serial dilutions (1:1) of the compounds. […] Reagent blanks, containing media plus colorimetric reagent without cells were run on each plate. Blank values were subtracted from test values and were routinely 5-10% of uninhibited control values. Plates were incubated 72 h, and living cell number was determined by AlamarBlue® and Hexosaminidase test. The advantages of using those assays are that both can be done in the same microwell plate. AlamarBlue® assay: plates were incubated 72 h and living cell number was determined by AlamarBlue (Biosource DAL1100). After 4 h incubation at 37° C., relative fluorescent intensity, which correlates with the number of living cells, was read in a Cytofluor plate reader (Millipore) at 535/590 nm (Excitation/emission). The hexosaminidase activity was measured according to the following protocol: the media was removed and cells were washed once with PBS.
(§7) Data analysis was done by calculating the percentage of cell viability normalized in front of negative control values, which were considered as a 100%. The curve was adjusted using a sigmoidal dose-response (variable slope) equation and EC50 values were obtained from the equation
(§8) where, X is the logarithm of concentration. Y is the response. Bottom is the Y value at the bottom plateau Top is the Y value at the top plateau LogEC50 is the X value when the response is halfway between Bottom and Top. With different kinds of variables, this variable is sometimes called ED50 (effective dose, 50%), or IC50 (inhibitory concentration, 50%, used when the curve goes downhill).

T47D = assay: Cancer cell growth inhibition, T47D; assay type: cell-based; conditions: Homo sapiens, Breast, cell viability, 72 h
Method: as §1, §2, §3, §4, §5, §6, §7, §8

DU-145 = assay: Cancer cell growth inhibition, DU-145; assay type: cell-based; conditions: Homo sapiens; Prostate, DU-145, cell viability, 72 h
Method: as §1, §2, §3, §4, §5
as §6, with “PBS. […]” for “PBS.”

PC3 = assay: Cancer cell growth inhibition, PC3; assay type: cell-based; conditions: Homo sapiens, PC-3; Prostate, PC3, cell viability, 72 h
Method: as §1, §2, §3, §4, §5, §6, §7, §8

LnCaP = assay: Cancer cell growth inhibition, LnCaP; assay type: cell-based; conditions: Homo sapiens, Prostate, cell viability, 72 h
Method: as §1, §2, §3, §4, §5, §6, §7, §8

HCT-116 = assay: Cancer cell growth inhibition, HCT-116; assay type: cell-based; conditions: Homo sapiens; Colorectal, HCT-116, cell viability, 72 h
Method: as §1, §2, §3, §4, §5, §6, §7, §8

Colo205 = assay: Cancer cell growth inhibition, Colo205; assay type: cell-based; conditions: Homo sapiens, COLO 205; Colorectal, Colo205, cell viability, 72 h
Method: as §1, §2, §3, §4, §5
as §6, with “PBS. […]” for “PBS.”

LoVo = assay: Cancer cell growth inhibition, LoVo; assay type: cell-based; conditions: Homo sapiens, Colorectal, cell viability, 72 h
Method: as §1, §2, §3, §4, §5
as §6, with “PBS. […]” for “PBS.”

SW-480 = assay: Cancer cell growth inhibition, SW-480; assay type: cell-based; conditions: Homo sapiens, SW480; Colorectal, SW-480, cell viability, 72 h
Method: as §1, §2
(§9) Cells were thawed in their appropriate media plus supplements (see table below). Cells were passaged at confluence by washing once in HBSS cation-free followed by a 3 minutes incubation with trypsin ([0.5 μg/ml]/EDTA [0.2 μg/ml]) (Gibco-BRL, 15400054) solution in HBSS at 37° C. (except non-adherent cell lines), and transferred to their appropriate media plus supplements. Prior to seeding at defined cell concentration, cells were recovered in medium, centrifuged and taken up in medium, and counted. […]
(§10) Dose-response curves were generated by serial dilutions (1:1) of the compounds. […] Plates were incubated 72 h, and living cell number was determined by AlamarBlue® and Hexosaminidase test. […] AlamarBlue® assay: plates were incubated 72 h and living cell number was determined by AlamarBlue (Biosource DAL1100). After 4 h incubation at 37° C., relative fluorescent intensity, which correlates with the number of living cells, was read in a Cytofluor plate reader (Millipore) at 535/590 nm (Excitation/emission). The hexosaminidase activity was measured according to the following protocol: the media was removed and cells were washed once with PBS. […]

LS174T = assay: Cancer cell growth inhibition, LS174T; assay type: cell-based; conditions: Homo sapiens, Colorectal, cell viability, 72 h
Method: as §1, §2, §9, §10

A-549 = assay: Cancer cell growth inhibition, A-549; assay type: cell-based; conditions: Homo sapiens, A549; Lung, A-549, cell viability, 72 h
Method: as §1, §2, §3, §4, §5, §6, §7, §8

NCI-H1975 = assay: Cancer cell growth inhibition, NCI-H1975; assay type: cell-based; conditions: Homo sapiens; Lung, NCI-H1975, cell viability, 72 h
Method: as §1, §2, §3, §4, §5, §6, §7, §8

NCI-H1650 = assay: Cancer cell growth inhibition, NCI-H1650; assay type: cell-based; conditions: Homo sapiens; Lung, NCI-H1650, cell viability, 72 h
Method: as §1, §2, §3, §4, §5
as §6, with “PBS. […]” for “PBS.”

NCI-H358 = assay: Cancer cell growth inhibition, NCI-H358; assay type: cell-based; conditions: Homo sapiens; Lung, NCI-H358, cell viability, 72 h
Method: as §1, §2, §3, §4, §5, §6, §7, §8

HT-1080 = assay: Cancer cell growth inhibition, HT-1080; assay type: cell-based; conditions: Homo sapiens; HT-1080, cell viability, 72 h
Method: as §1, §2, §3, §4, §5, §6, §7, §8

MiaPaCa-2 = assay: Cancer cell growth inhibition, MiaPaCa-2; assay type: cell-based; conditions: Homo sapiens, MIA PaCa-2; Pancreatic, MiaPaCa-2, cell viability, 72 h
Method: as §1, §2, §3, §4, §5, §6, §7, §8

Panc-1 = assay: Cancer cell growth inhibition, Panc-1; assay type: cell-based; conditions: Homo sapiens; Pancreatic, Panc-1, cell viability, 72 h
Method: as §1, §2, §3, §4, §5, §6, §7, §8

MDA-MB-435 = assay: Cancer cell growth inhibition, MDA-MB-435; assay type: cell-based; conditions: Homo sapiens; Melanoma, MDA-MB-435, cell viability, 72 h
Method: as §1, §2, §3, §4, §5, §6, §7, §8

SK-MEL-28 = assay: Cancer cell growth inhibition, SK-MEL-28; assay type: cell-based; conditions: Homo sapiens; Melanoma, SK-MEL-28, cell viability, 72 h
Method: as §1, §2, §3, §4, §5
as §6, with “PBS. […]” for “PBS.”

143B = assay: Cancer cell growth inhibition, 143B; assay type: cell-based; conditions: Homo sapiens, Osteosarcoma, cell viability, 72 h
Method: as §1, §2, §3, §4, §5, §6, §7, §8

Daoy = assay: Cancer cell growth inhibition, Daoy; assay type: cell-based; conditions: Homo sapiens, Brain, cell viability, 72 h
Method: as §1, §2, §3, §4, §5, §6, §7, §8

U-373MG = assay: Cancer cell growth inhibition, U-373MG; assay type: cell-based; conditions: Homo sapiens, U373 MG, Brain, cell viability, 72 h
Method: as §1, §2, §3, §4, §5
as §6, with “PBS. […]” for “PBS.”

U-87MG = assay: Cancer cell growth inhibition, U-87MG; assay type: cell-based; conditions: Homo sapiens, Brain, cell viability, 72 h
Method: as §1, §2, §3, §4, §5, §6, §7, §8

SK-OV-3 = assay: Cancer cell growth inhibition, SK-OV-3; assay type: cell-based; conditions: Homo sapiens; Ovarian, SK-OV-3, cell viability, 72 h
Method: as §1, §2, §3, §4, §5
as §6, with “PBS. […]” for “PBS.”

CCFR-CEM = assay: Cancer cell growth inhibition, CCFR-CEM; assay type: cell-based; conditions: Hematologic, cell viability, 72 h
Method: as §1, §2, §3, §4, §5, §6, §7, §8

Jurkat = assay: Cancer cell growth inhibition, Jurkat; assay type: cell-based; conditions: Homo sapiens, Hematologic, cell viability, 72 h
Method: as §1, §2, §3, §4, §5, §6, §7, §8

K562 = assay: Cancer cell growth inhibition, K562; assay type: cell-based; conditions: Homo sapiens; Hematologic, K562, cell viability, 72 h
Method: as §1, §2, §3, §4, §5
as §6, with “PBS. […]” for “PBS.”

RAMOS = assay: Cancer cell growth inhibition, RAMOS; assay type: cell-based; conditions: Homo sapiens, Hematologic, cell viability, 72 h
Method: as §1, §2, §3, §4, §5, §6, §7, §8

RPMI-8226 = assay: Cancer cell growth inhibition, RPMI-8226; assay type: cell-based; conditions: Homo sapiens; Multiple Myelome, RPMI-8226, cell viability, 72 h
Method: as §1, §2, §3, §4, §5, §6, §7, §8

COc1cc(OC)c2c(-c3ccc(O)c(O)c3O)cn(CC(=O)c3ccc(O)c(O)c3O)c2c1 [Example 11, 2-[4,6-dimethoxy-3-(2,3,4-trihydroxyphenyl)-1H-indol-1-yl]-1-(2,3,4-trihydroxyphenyl)ethanone]
IC50 (Human DNMT1): 39.4 µM | EC50 (MCF-7): 12 µM | EC50 (T47D): 30 µM | EC50 (DU-145): 47 µM | EC50 (PC3): 26 µM | EC50 (LnCaP): 30 µM | EC50 (HCT-116): 22 µM | EC50 (Colo205): 24 µM | EC50 (LoVo): 50 µM | EC50 (SW-480): 24 µM | EC50 (LS174T): 62 µM | EC50 (A-549): 35 µM | EC50 (NCI-H1975): 30 µM | EC50 (NCI-H1650): 57 µM | EC50 (NCI-H358): 51 µM | EC50 (HT-1080): 20 µM | EC50 (MiaPaCa-2): 65 µM | EC50 (Panc-1): 23 µM | EC50 (MDA-MB-435): 11 µM | EC50 (SK-MEL-28): 33 µM | EC50 (143B): 99 µM | EC50 (Daoy): 6.6 µM | EC50 (U-373MG): 58 µM | EC50 (U-87MG): 50 µM | EC50 (SK-OV-3): 73 µM | EC50 (CCFR-CEM): 7.6 µM | EC50 (Jurkat): 8.9 µM | EC50 (K562): 69 µM | EC50 (RAMOS): 12 µM | EC50 (RPMI-8226): 60 µM
